The results in this text go back to patent US20260116920A1, “HUMAN TRANSFERRIN RECEPTOR BINDING PEPTIDE” (PEPTIDREAM INC., priority 2021, published 2026).

Molecules are shown by their SMILES. Positions of bridges follow the written chain, without caps; N, C: chain ends. Non-standard residues stand in square brackets, D forms with d. Residues, ends and D or L forms follow the SMILES beside them. *: point of attachment. Ala(1-CH2CO2H-4-piperidyl) = N[C@@H](CC1CCN(CC(=O)O)CC1)C(=O)O; Trp(1-CH2COOH) = N[C@@H](Cc1cn(CC(=O)O)c2ccccc12)C(=O)O; NMePhe(4-COOH) = CN[C@@H](Cc1ccc(C(=O)O)cc1)C(=O)O; Nle(6-morpholino) = N[C@@H](CCCCN1CCOCC1)C(=O)O; Phe(3-COOH) = N[C@@H](Cc1cccc(C(=O)O)c1)C(=O)O; Trp(7-aza) = N[C@@H](Cc1c[nH]c2ncccc12)C(=O)O; NH(CH2CH2O)8Me = COCCOCCOCCOCCOCCOCCOCCOCCN*; NMePhe(3-Cl) = CN[C@@H](Cc1cccc(Cl)c1)C(=O)O; 3Pal(6-NH2) = Nc1ccc(C[C@H](N)C(=O)O)cn1; X2 = COCCOCCOCCOCCOCCOCCOCCOCCNC(=O)C*; NMe3Pal = CN[C@@H](Cc1cccnc1)C(=O)O; NMeY = CN[C@@H](Cc1ccc(O)cc1)C(=O)O; 3Pal = N[C@@H](Cc1cccnc1)C(=O)O; 4Pal = N[C@@H](Cc1ccncc1)C(=O)O; PEG4 = NCCOCCOCCOCCOCCC(=O)O; Carboxymethyl = O=C(O)C*

T1 sequence (P02786 89-760 limits assumed): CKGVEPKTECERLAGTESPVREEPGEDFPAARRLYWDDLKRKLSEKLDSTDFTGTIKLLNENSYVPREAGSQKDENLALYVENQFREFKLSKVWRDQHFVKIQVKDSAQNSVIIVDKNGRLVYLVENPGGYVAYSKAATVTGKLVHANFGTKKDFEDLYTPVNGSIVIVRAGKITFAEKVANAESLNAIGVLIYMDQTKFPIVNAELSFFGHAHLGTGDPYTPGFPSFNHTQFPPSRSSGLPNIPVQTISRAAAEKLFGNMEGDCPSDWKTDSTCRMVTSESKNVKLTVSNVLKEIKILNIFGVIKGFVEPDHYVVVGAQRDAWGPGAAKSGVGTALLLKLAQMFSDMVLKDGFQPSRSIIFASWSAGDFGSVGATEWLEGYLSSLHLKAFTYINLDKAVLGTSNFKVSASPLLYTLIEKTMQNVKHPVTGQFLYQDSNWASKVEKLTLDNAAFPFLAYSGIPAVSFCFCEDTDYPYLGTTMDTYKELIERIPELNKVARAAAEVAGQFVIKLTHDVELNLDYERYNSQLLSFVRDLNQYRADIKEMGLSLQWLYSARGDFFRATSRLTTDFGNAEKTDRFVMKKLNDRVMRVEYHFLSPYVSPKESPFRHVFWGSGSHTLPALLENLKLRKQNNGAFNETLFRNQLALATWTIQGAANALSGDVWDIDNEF

One assay concerns the target T1, human transferrin receptor (hTfR) (Homo sapiens, UniProt P02786).
T1 construct: made in house
Briefly: Evaluation of molecular interaction between transferrin receptor (hTfR) and peptide using surface plasmon resonance (SPR). In kind it is binding. The following applies: KD class for binding to hTfR by SPR; peptide with the linker shown in the same line; 'low signal indicates no activity'; read-out: SPR. In a few lines: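 KD values are derived by least-squares fitting of single-cycle kinetic sensorgrams. Peptide series (5–100 nM) flows over recombinant hTfR dimer immobilized on a Ni-NTA chip by EDC/NHS coupling, in pH 8.0 HEPES buffer containing 0.1% BSA and 1.0% DMSO.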
`CC[C@H](C)[C@@H]1NC(=O)[C@H](Cc2ccc(OCC(=O)O)cc2)NC(=O)[C@H](Cc2ccc(O)cc2)NC(=O)[C@H](CC(N)=O)NC(=O)[C@H](Cc2cn(CC(=O)O)c3ccccc23)NC(=O)[C@H](C(C)C)NC(=O)[C@H](Cc2cccc(Cl)c2)N(C)C(=O)[C@H](C(C)C)NC(=O)[C@H](C)NC(=O)CSC[C@@H](C(=O)NCCOCCOCCOCCOCCC(N)=O)NC(=O)[C@H](Cc2ccc(O)cc2)N(C)C(=O)[C@H](Cc2ccccc2)NC(=O)[C@H](CCCNC(=N)N)NC(=O)[C@H](CCC(=O)N2CCN(CC(=O)O)CC2)NC(=O)[C@H]([C@@H](C)CC)NC1=O` [894_0383]: the Kd is 1 to 100 nM.
Turning to `CC[C@H](C)[C@@H]1NC(=O)[C@H](Cc2cccnc2)NC(=O)[C@H](Cc2ccc(O)cc2)NC(=O)[C@H](CC(N)=O)NC(=O)[C@H](Cc2c[nH]c3ccccc23)NC(=O)[C@H](C(C)C)NC(=O)[C@H](Cc2cccc(Cl)c2)N(C)C(=O)[C@H](C(C)C)NC(=O)[C@H](C)NC(=O)CSC[C@@H](C(=O)NCCOCCOCCOCCOCCC(N)=O)NC(=O)[C@H](Cc2ccc(O)cc2)N(C)C(=O)[C@H](Cc2ccccc2)NC(=O)[C@H](CCC(=O)NCCOCCOCCOCCOCCOCCOCCOCCOC)NC(=O)[C@H](CCCNC(=N)N)NC(=O)[C@H]([C@@H](C)CC)NC1=O` [894_0360] ({CH2CO}-AV[NMePhe(3-Cl)]VWNY[3Pal]IIRE(NH(CH2CH2O)8Me)F[NMeY]C[PEG4]-NH2; thioether N-15), the Kd was in the range of 1 to 100 nM.
For the compound `CC[C@H](C)[C@@H]1NC(=O)[C@H](Cc2ccc(OCC(=O)O)cc2)NC(=O)[C@H](Cc2ccc(O)cc2)NC(=O)[C@H](CC(N)=O)NC(=O)[C@H](Cc2cn(CC(=O)O)c3ccccc23)NC(=O)[C@H](C(C)C)NC(=O)[C@H](Cc2cccc(Cl)c2)N(C)C(=O)[C@H](C(C)C)NC(=O)[C@H](C)NC(=O)CSC[C@@H](C(=O)NCCOCCOCCOCCOCCC(N)=O)NC(=O)[C@H](Cc2ccc(O)cc2)N(C)C(=O)[C@H](Cc2ccccc2)NC(=O)[C@H](CCCNC(=N)N)NC(=O)[C@H](CC2CCN(CC(=O)O)CC2)NC(=O)[C@H]([C@@H](C)CC)NC1=O` [894_0386] ({CH2CO}-AV[NMePhe(3-Cl)]V[Trp(1-CH2COOH)]NYY(Carboxymethyl)II[Ala(1-CH2CO2H-4-piperidyl)]RF[NMeY]C[PEG4]-NH2; thioether N-15), the Kd is < 1 nM.

Staying with this assay, now noted: peptide with linker, surface plasmon resonance; read-out: SPR (KD class for binding to hTfR).
For `CC[C@H](C)[C@@H]1NC(=O)[C@H](Cc2ccc(OCC(=O)O)cc2)NC(=O)[C@H](Cc2ccc(N)nc2)NC(=O)[C@H](CC(N)=O)NC(=O)[C@H](Cc2c[nH]c3ncccc23)NC(=O)[C@H](C(C)C)NC(=O)[C@H](Cc2cccc(Cl)c2)N(C)C(=O)[C@H](C(C)C)NC(=O)[C@H](C)NC(=O)CSC[C@@H](C(=O)NCCOCCOCCOCCOCCC(N)=O)NC(=O)[C@H](Cc2ccc(O)cc2)N(C)C(=O)[C@H](Cc2cccc(C(=O)O)c2)NC(=O)[C@H](CCCNC(=N)N)NC(=O)[C@H](CCC(=O)NCCOCCOCCOCCOCCOCCOCCOCCOC)NC(=O)[C@H]([C@@H](C)CC)NC1=O` [compound 239] ({CH2CO}-AV[NMePhe(3-Cl)]V[Trp(7-aza)]N[3Pal(6-NH2)]Y(Carboxymethyl)IIE(NH(CH2CH2O)8Me)R[Phe(3-COOH)][NMeY]C[PEG4]-NH2; thioether N-15), the Kd lay within 1 to 100 nM.
For the compound `CC[C@H](C)[C@@H]1NC(=O)[C@H](Cc2ccc(OCC(=O)NCCOCCOCCOCCOCCOCCOCCOCCOC)cc2)NC(=O)[C@H](Cc2ccc(O)cc2)NC(=O)[C@H](CC(N)=O)NC(=O)[C@H](Cc2c[nH]c3ncccc23)NC(=O)[C@H](C(C)C)NC(=O)[C@H](Cc2cccc(Cl)c2)N(C)C(=O)[C@H](C(C)C)NC(=O)[C@H](C)NC(=O)CSC[C@@H](C(=O)NCCOCCOCCOCCOCCC(N)=O)NC(=O)[C@H](Cc2ccc(C(=O)NCCOCCOCCOCCOCCOCCOCCOCCOC)cc2)N(C)C(=O)[C@H](Cc2ccncc2)NC(=O)[C@H](CCC(N)=O)NC(=O)[C@H](CCC(N)=O)NC(=O)[C@H]([C@@H](C)CC)NC1=O` [compound 227] ({CH2CO}-AV[NMePhe(3-Cl)]V[Trp(7-aza)]NYY(X2)IIQQ[4Pal][NMePhe(4-COOH)](NH(CH2CH2O)8Me)C[PEG4]-NH2; thioether N-15), the Kd is 1 to 100 nM.
For `CC[C@H](C)[C@@H]1NC(=O)[C@H](Cc2ccc(OCC(=O)O)cc2)NC(=O)[C@H](Cc2ccc(N)nc2)NC(=O)[C@H](CC(N)=O)NC(=O)[C@H](Cc2c[nH]c3ncccc23)NC(=O)[C@H](C(C)C)NC(=O)[C@H](Cc2cccc(Cl)c2)N(C)C(=O)[C@H](C(C)C)NC(=O)[C@H](C)NC(=O)CSC[C@@H](C(=O)NCCOCCOCCOCCOCCC(N)=O)NC(=O)[C@H](Cc2ccc(O)cc2)N(C)C(=O)[C@H](Cc2cccc(C(=O)O)c2)NC(=O)[C@H](CCCCN2CCOCC2)NC(=O)[C@H](CCC(=O)NCCOCCOCCOCCOCCOCCOCCOCCOC)NC(=O)[C@H]([C@@H](C)CC)NC1=O` [compound 233] ({CH2CO}-AV[NMePhe(3-Cl)]V[Trp(7-aza)]N[3Pal(6-NH2)]Y(Carboxymethyl)IIE(NH(CH2CH2O)8Me)[Nle(6-morpholino)][Phe(3-COOH)][NMeY]C[PEG4]-NH2; thioether N-15), the Kd lay within 1 to 100 nM.

The same assay, now with this note: surface plasmon resonance, binding to hTfR; KD class symbol; read-out: SPR (KD value).
`CC[C@H](C)[C@@H]1NC(=O)[C@H](Cc2ccc(OC)cc2)NC(=O)[C@H](Cc2ccc(O)cc2)NC(=O)[C@H](CC(N)=O)NC(=O)[C@H](Cc2c[nH]c3ccccc23)NC(=O)[C@H](C(C)C)NC(=O)[C@H](Cc2cccnc2)N(C)C(=O)[C@H](C(C)C)NC(=O)[C@H](C)NC(=O)CSC[C@@H](C(=O)NCCOCCOCCOCCOCCC(N)=O)NC(=O)[C@H](Cc2ccc(O)cc2)N(C)C(=O)[C@H](Cc2ccncc2)NC(=O)[C@H](CCCNC(=N)N)NC(=O)[C@H](CCCNC(=N)N)NC(=O)[C@H]([C@@H](C)CC)NC1=O` [compound 58] ({CH2CO}-AV[NMe3Pal]VWNYY(Me)IIRR[4Pal][NMeY]C[PEG4]-NH2; thioether N-15): the Kd fell in the range of 1 to 100 nM.
`CC[C@H](C)[C@@H]1NC(=O)[C@H](Cc2ccc(OC)cc2)NC(=O)[C@H](Cc2ccc(O)cc2)NC(=O)[C@H](CC(N)=O)NC(=O)[C@H](Cc2c[nH]c3ncccc23)NC(=O)[C@H](C(C)C)NC(=O)[C@H](Cc2cccc(Cl)c2)N(C)C(=O)[C@H](C(C)C)NC(=O)[C@H](C)NC(=O)CSC[C@@H](C(=O)NCCOCCOCCOCCOCCC(N)=O)NC(=O)[C@H](Cc2ccc(O)cc2)N(C)C(=O)[C@H](Cc2ccncc2)NC(=O)[C@H](CCCNC(=N)N)NC(=O)[C@H](CCCNC(=N)N)NC(=O)[C@H]([C@@H](C)CC)NC1=O` [compound 65]: the Kd fell in the range of 1 to 100 nM.
The same measure, in the same setting: in the case of `CC[C@H](C)[C@@H]1NC(=O)[C@H](Cc2ccc(OC)cc2)NC(=O)[C@H](Cc2ccc(O)cc2)NC(=O)[C@H](CC(N)=O)NC(=O)[C@H](Cc2c[nH]c3ccccc23)NC(=O)[C@H](C(C)C)NC(=O)[C@H](Cc2cccc(Cl)c2)N(C)C(=O)[C@H](C(C)C)NC(=O)[C@H](C)NC(=O)CSC[C@@H](C(=O)NCCOCCOCCOCCOCCC(N)=O)NC(=O)[C@H](Cc2cccnc2)N(C)C(=O)[C@H](Cc2ccncc2)NC(=O)[C@H](CCCNC(=N)N)NC(=O)[C@H](CCCNC(=N)N)NC(=O)[C@H]([C@@H](C)CC)NC1=O` [compound 66] it was 1 to 100 nM.
As for `CC[C@H](C)[C@@H]1NC(=O)[C@H](Cc2ccc(OCC(=O)O)cc2)NC(=O)[C@H](Cc2ccc(O)cc2)NC(=O)[C@H](CC(N)=O)NC(=O)[C@H](Cc2cn(CC(=O)O)c3ccccc23)NC(=O)[C@H](C(C)C)NC(=O)[C@H](Cc2cccc(Cl)c2)N(C)C(=O)[C@H](C(C)C)NC(=O)[C@H](C)NC(=O)CSC[C@@H](C(=O)NCCOCCOCCOCCOCCC(N)=O)NC(=O)[C@H](Cc2ccc(O)cc2)N(C)C(=O)[C@H](Cc2ccccc2)NC(=O)[C@H](CCCNC(=N)N)NC(=O)[C@H](CCC(=O)NC(COC)COC)NC(=O)[C@H]([C@@H](C)CC)NC1=O` [compound 111], the Kd is 1 to 100 nM.
Consider `CC[C@H](C)[C@@H]1NC(=O)[C@H](Cc2ccc(OCC(=O)O)cc2)NC(=O)[C@H](Cc2ccc(N)nc2)NC(=O)[C@H](CC(N)=O)NC(=O)[C@H](Cc2cn(CC(=O)O)c3ccccc23)NC(=O)[C@H](C(C)C)NC(=O)[C@H](Cc2cccc(Cl)c2)N(C)C(=O)[C@H](C(C)C)NC(=O)[C@H](C)NC(=O)CSC[C@@H](C(=O)NCCOCCOCCOCCOCCC(N)=O)NC(=O)[C@H](Cc2ccc(O)cc2)N(C)C(=O)[C@H](Cc2cccc(C(=O)O)c2)NC(=O)[C@H](CCCNC(=N)N)NC(=O)[C@H](CCCNC(=N)N)NC(=O)[C@H]([C@@H](C)CC)NC1=O` [compound 81] ({CH2CO}-AV[NMePhe(3-Cl)]V[Trp(1-CH2COOH)]N[3Pal(6-NH2)]Y(Carboxymethyl)IIRR[Phe(3-COOH)][NMeY]C[PEG4]-NH2; thioether N-15), for which the Kd lay within 1 to 100 nM.
Consider `CC[C@H](C)[C@@H]1NC(=O)[C@H](Cc2ccc(OC)cc2)NC(=O)[C@H](Cc2ccc(N)nc2)NC(=O)[C@H](CC(N)=O)NC(=O)[C@H](Cc2c[nH]c3ccccc23)NC(=O)[C@H](C(C)C)NC(=O)[C@H](Cc2cccnc2)N(C)C(=O)[C@H](C(C)C)NC(=O)[C@H](C)NC(=O)CSC[C@@H](C(=O)NCCOCCOCCOCCOCCC(N)=O)NC(=O)[C@H](Cc2ccc(O)cc2)N(C)C(=O)[C@H](Cc2ccccc2)NC(=O)[C@H](CCCNC(=N)N)NC(=O)[C@H](CCCNC(=N)N)NC(=O)[C@H]([C@@H](C)CC)NC1=O` [compound 63] ({CH2CO}-AV[NMe3Pal]VWN[3Pal(6-NH2)]Y(Me)IIRRF[NMeY]C[PEG4]-NH2; thioether N-15), for which the Kd fell in the range of 1 to 100 nM.
Still for that read-out and setting: then `CC[C@H](C)[C@@H]1NC(=O)[C@H](Cc2ccc(O)cc2)NC(=O)[C@H](Cc2ccc(O)cc2)NC(=O)[C@H](CC(N)=O)NC(=O)[C@H](Cc2c[nH]c3ccc(Cl)cc23)NC(=O)[C@H](C(C)C)NC(=O)[C@H](Cc2ccc(F)cc2)N(C)C(=O)[C@H](C(C)C)NC(=O)[C@H](C)NC(=O)CSC[C@@H](C(=O)NCCOCCOCCOCCOCCC(N)=O)NC(=O)[C@H](Cc2ccc(O)cc2)N(C)C(=O)[C@H](Cc2ccccc2)NC(=O)[C@H](CCCNC(=N)N)NC(=O)[C@H](CCCNC(=N)N)NC(=O)[C@H]([C@@H](C)CC)NC1=O` [compound 22], with < 1 nM.
